Reference: US20250223303A1, “TRICYCLIC BORONIC ACID DERIVATIVE, AND PREPARATION METHOD THEREFOR AND APPLICATION THEREOF” (priority 2021, published 2025)

Tests used:
Assay type in all cases: biochemical
[1] = molecular target: T1, NDM-1 (Klebsiella pneumoniae, UniProt C7C422); assay: Enzyme activity test (FC5 fluorescent substrate), NDM-1; conditions: enzyme 6 pM, substrate FC5 15 μM, MBL buffer
T1 construct: purchased GenScript Biotech Co., Ltd
Method: (§1) Compound stock solution: the compound was prepared as a 50 mM DMSO stock solution. […] After aliquoting, the compound stock solutions were stored at −20° C.
(§2) Preparation and storage of antibiotic substrate stock solution: antibiotic fluorescent substrate FC5 was synthesized internally and prepared as a 2 mM stock solution, which was stored at −20° C. after aliquoting.
(§3) Storage of β-lactamases: each […] was synthesized by GenScript Biotech Co., Ltd., and stored at −80° C. after aliquoting to avoid repeated freezing and thawing.
(§4) Preparation of enzyme activity reaction buffer: SBL buffer: PBS pH 7.4, 0.01% (v/v) Triton X-100; MBL buffer: 50 Mm HEPES in PBS pH 7.2, 1 μM ZnSO4, 1 μg/mL BSA, 0.010% v/v Triton X-100
(§5) a) The compound to be tested and buffer were taken out and warmed to room temperature.
(§6) b) Each compound was diluted with DMSO and buffer to the initial experimental concentration (Table 2), and then the compound was diluted 3-fold for a total of 10 concentrations.
(§7) c) Diluted compounds were added to wells 1 to 20 of a 384-well black plate at 2 replicate wells per concentration, 5 μL per well. 5 µL of DMSO was added to wells 21 to 24.
(§8) d) Each enzyme was diluted to the experimental concentration (Table 2) in SBL and MBL buffers, and finally 35 μL/well was added, with a total of 22 wells. 35 μL buffer was added to wells 23 to 24. Wells 21 to well 22 served as the maximum test values (Max), while wells 23 to 24 were designated as the minimum test values (Min).
(§9) e) The 384-well plate was centrifuged quickly and incubated for 10 minutes at room temperature.
(§10) f) The antibiotic substrate FC5 was diluted in buffer to the experimental concentration of each enzyme (Table 2).
(§11) g) The incubated 384-well plate was taken out and FC-5 was added to wells […]. The 384-well plate was centrifuged rapidly and promptly transferred to a microplate reader for reading.
(§12) h) The fluorescence intensity was measured at 355 nm excitation light/460 nm emission light in the microplate reader, and the fluorescence intensity was measured every three minutes for a total of 10 measurements.
(§13) Initial velocity of enzyme reaction V: Subtract the background reading (Min wells) without enzyme from each fluorescence intensity reading, and then perform on a linear regression analysis on each compound concentration group. The slope is the initial velocity of enzyme reaction (V) at each compound concentration.
(§14) Dose-effect curve and IC50 calculation of compounds: The initial velocity of enzyme reaction under the effect of each concentration of compounds was subjected to nonlinear regression fitting. The IC50 (half-maximal inhibitory concentration) of each compound was calculated using the formula […] (Vi: the initial velocity of enzyme reaction at each compound concentration; V0: initial velocity of enzyme reaction without the compound (Max wells). The software used was Graphpad prism 8.

[2] = molecular target: T2, IMP-1 (Serratia marcescens, UniProt P52699); assay: Enzyme activity test (FC5 fluorescent substrate), IMP-1; conditions: enzyme 20 pM, substrate FC5 15 μM
T2 construct: purchased GenScript Biotech Co., Ltd
Method: as §1, §2, §3, §4, §5, §6, §7, §8, §9, §10, §11, §12, §13, §14

[3] = molecular target: T3, VIM-1 (Pseudomonas aeruginosa, UniProt A0A0F7KYQ8); assay: Enzyme activity test (FC5 fluorescent substrate), VIM-1; conditions: enzyme 70 pM, substrate FC5 10 μM
T3 construct: purchased GenScript Biotech Co., Ltd
Method: as §1, §2, §3, §4, §5, §6, §7, §8, §9, §10, §11, §12, §13, §14

[4] = molecular target: T4, VIM-2 (Escherichia coli, UniProt Q5U7L7); assay: Enzyme activity test (FC5 fluorescent substrate), VIM-2; conditions: enzyme 25 pM, substrate FC5 20 μM
T4 construct: purchased GenScript Biotech Co., Ltd
Method: as §1, §2, §3, §4, §5, §6, §7, §8, §9, §10, §11, §12, §13, §14

[5] = molecular target: T5, OXA-10 (Pseudomonas aeruginosa, UniProt P14489); assay: Enzyme activity test (FC5 fluorescent substrate), OXA-10; conditions: enzyme 350 pM, substrate FC5 50 μM
T5 construct: purchased GenScript Biotech Co., Ltd
Method: as §1, §2, §3, §4, §5, §6, §7, §8, §9, §10, §11, §12, §13, §14

[6] = system: four classes of β-lactamase, A, B, C, and D; assay: Enzyme activity test, summary by β-lactamase class
Method: as §1, §2, §3, §4, §5, §6, §7
d) Each enzyme was diluted to the experimental concentration (Table 2) in SBL and MBL buffers, and finally 35 μL/well was added, with a total of 22 wells. 35 μL buffer was added to wells 23 to 24. […]
as §11, §12
(§15) Initial velocity of enzyme reaction V: Subtract the background reading (Min wells) without enzyme from each fluorescence intensity reading, and then perform on a linear regression analysis on each compound concentration group. […]

[7] = molecular target: NDM-5 (Klebsiella pneumoniae, UniProt C7C422, M154L/V88L); assay: Enzyme activity test (FC5 fluorescent substrate), NDM-5
Method: as §1, §2, §3, §4, §5, §6, §7, §8
e) The 384-well plate was centrifuged quickly and incubated for 10 minutes at room temperature. […]
as §11, §12, §15, §14

[8] = molecular target: T6, KPC-2 (Klebsiella pneumoniae, UniProt Q9F663); assay: Enzyme activity test (FC5 fluorescent substrate), KPC-2; conditions: enzyme 45 pM, substrate FC5 25 μM
T6 construct: purchased GenScript Biotech Co., Ltd
Method: as §1, §2, §3, §4, §5, §6, §7, §8, §9, §10, §11, §12, §13, §14

[9] = molecular target: T7, CTX-M-15 (Escherichia coli, UniProt Q9EXV5); assay: Enzyme activity test (FC5 fluorescent substrate), CTX-M-15; conditions: enzyme 45 pM, substrate FC5 50 μM
T7 construct: purchased GenScript Biotech Co., Ltd
Method: as §1, §2, §3, §4, §5, §6, §7, §8, §9, §10, §11, §12, §13, §14

[10] = molecular target: Ampc (UniProt P24735); assay: Enzyme activity test (FC5 fluorescent substrate), AmpC; conditions: enzyme 25 pM, substrate FC5 15 μM
Method: as §1, §2, §3, §4, §5, §6, §7, §8, §9, §10, §11, §12, §13, §14

[11] = molecular target: T8, OXA-48 (Klebsiella pneumoniae, UniProt Q6XEC0); assay: Enzyme activity test (FC5 fluorescent substrate), OXA-48; conditions: enzyme 650 pM, substrate FC5 125 μM
T8 construct: purchased GenScript Biotech Co., Ltd
Method: as §1, §2, §3, §4, §5, §6, §7, §8, §9, §10, §11, §12, §13, §14

[12] = molecular target: T9, OXA-23 (Acinetobacter baumannii, UniProt Q9L4P2); assay: Enzyme activity test (FC5 fluorescent substrate), OXA-23; conditions: enzyme 650 pM, substrate FC5 50 μM
T9 construct: purchased GenScript Biotech Co., Ltd
Method: as §1, §2, §3, §4, §5, §6, §7, §8, §9, §10, §11, §12, §13, §14

T7 sequence (Q9EXV5 entry or part of it): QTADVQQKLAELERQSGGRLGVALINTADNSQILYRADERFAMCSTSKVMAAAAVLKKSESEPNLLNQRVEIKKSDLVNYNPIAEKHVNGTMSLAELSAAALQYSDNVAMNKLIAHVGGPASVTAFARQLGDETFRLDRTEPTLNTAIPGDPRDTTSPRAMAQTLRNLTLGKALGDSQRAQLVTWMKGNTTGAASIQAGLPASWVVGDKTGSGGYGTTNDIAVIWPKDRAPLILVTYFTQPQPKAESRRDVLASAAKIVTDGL
T5 sequence (P14489 20-266): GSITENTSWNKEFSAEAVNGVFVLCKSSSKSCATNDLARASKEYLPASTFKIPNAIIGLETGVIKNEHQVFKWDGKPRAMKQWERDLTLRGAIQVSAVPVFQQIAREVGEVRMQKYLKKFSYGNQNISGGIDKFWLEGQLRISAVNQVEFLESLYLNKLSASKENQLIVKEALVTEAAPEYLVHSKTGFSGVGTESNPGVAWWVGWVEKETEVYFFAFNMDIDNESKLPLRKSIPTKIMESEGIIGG
T2 sequence (P52699 19-246 limits assumed): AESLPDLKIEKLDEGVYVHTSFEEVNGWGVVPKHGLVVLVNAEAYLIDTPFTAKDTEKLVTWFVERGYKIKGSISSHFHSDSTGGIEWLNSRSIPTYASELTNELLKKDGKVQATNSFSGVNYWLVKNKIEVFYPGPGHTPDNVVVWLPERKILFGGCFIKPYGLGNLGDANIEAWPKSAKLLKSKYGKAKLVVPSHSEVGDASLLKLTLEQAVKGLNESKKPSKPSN
T6 sequence (Q9F663 25-293 limits assumed): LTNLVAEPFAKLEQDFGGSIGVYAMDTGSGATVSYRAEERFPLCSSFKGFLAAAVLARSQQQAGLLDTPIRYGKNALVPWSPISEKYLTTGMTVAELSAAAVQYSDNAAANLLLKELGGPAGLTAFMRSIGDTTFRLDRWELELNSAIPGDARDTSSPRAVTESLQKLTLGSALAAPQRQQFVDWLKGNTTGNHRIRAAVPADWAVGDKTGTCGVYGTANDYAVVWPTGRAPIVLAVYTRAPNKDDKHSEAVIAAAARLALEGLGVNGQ
T8 sequence (Q6XEC0 23-265 limits assumed): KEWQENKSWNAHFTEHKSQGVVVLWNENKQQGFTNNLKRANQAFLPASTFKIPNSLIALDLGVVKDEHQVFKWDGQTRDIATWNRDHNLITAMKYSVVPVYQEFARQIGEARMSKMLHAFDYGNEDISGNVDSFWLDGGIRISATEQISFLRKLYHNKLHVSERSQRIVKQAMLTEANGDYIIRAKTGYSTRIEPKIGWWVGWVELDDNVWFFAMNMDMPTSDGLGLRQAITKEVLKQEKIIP
T1 sequence (C7C422 29-270 limits assumed): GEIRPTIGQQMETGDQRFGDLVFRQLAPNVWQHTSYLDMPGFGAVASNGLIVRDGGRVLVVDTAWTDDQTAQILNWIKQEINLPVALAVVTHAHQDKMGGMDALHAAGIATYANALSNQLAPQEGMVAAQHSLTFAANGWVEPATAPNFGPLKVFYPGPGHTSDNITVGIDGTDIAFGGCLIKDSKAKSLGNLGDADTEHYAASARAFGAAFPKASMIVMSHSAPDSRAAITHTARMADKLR
T9 sequence (Q9L4P2 18-273): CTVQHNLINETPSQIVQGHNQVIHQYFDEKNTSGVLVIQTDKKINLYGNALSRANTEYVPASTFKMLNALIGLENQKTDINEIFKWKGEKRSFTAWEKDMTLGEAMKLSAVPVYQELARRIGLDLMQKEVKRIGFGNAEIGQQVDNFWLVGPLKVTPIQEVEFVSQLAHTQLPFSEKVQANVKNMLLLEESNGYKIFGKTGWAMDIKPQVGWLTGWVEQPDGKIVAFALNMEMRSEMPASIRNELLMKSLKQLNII
Sequence of NDM-5 (C7C422 29-270 V88L/M154L): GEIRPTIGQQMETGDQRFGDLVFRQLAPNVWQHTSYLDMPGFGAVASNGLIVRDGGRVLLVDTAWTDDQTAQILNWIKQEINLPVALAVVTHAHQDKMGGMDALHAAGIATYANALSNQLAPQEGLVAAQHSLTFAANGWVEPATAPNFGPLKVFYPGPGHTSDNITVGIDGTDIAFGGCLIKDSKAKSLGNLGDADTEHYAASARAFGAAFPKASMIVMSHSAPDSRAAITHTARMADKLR

Structure (SMILES) | IC50 [1] [nM] | IC50 [2] [nM] | IC50 [3] [nM] | IC50 [4] [nM] | IC50 [5] [nM] | activity against class A and class C serine β-lactamases (SBL) ([6]; class A and class C SBL) | inhibitory effect on class B metal-zinc ion β-lactamase (MBL) ([6]; class B MBL) | inhibitory activity against the class D serine β-lactamase ([6]; class D SBL) | IC50 [7] [nM] | IC50 [8] [nM] | IC50 [9] [nM] | IC50 [10] [nM] | IC50 [11] [nM] | IC50 [12] [nM]
NC(=O)[C@@H]1CC[C@@H]2CN1C(=O)N2OS(=O)(=O)O [Avibactam, reference compound] | > 10000 | > 10000 | > 10000 | > 10000 | 5760 | good activity | no inhibitory effect | low inhibitory activity |  |  |  |  |  | 
CSc1ccc2c(c1C(=O)O)OB(O)[C@@H]1C[C@H]21 [Compound 1] | 13.1 | < 5.1 | 1.5 | 0.1 | 10 |  |  |  | 15.3 | 1.2 | 1.3 | 17.2 | 0.2 | 0.8
CC(C)Sc1ccc2c(c1C(=O)O)OB(O)[C@@H]1C[C@H]21 [Compound 2] | 1.6 | < 5.1 | 0.1 | 0.1 | 6.8 |  |  |  | 2.9 | 3.3 | 3.2 | 42.7 | 0.4 | 0.6
O=C(O)c1c(S[C@H]2CCOC2)ccc2c1OB(O)[C@@H]1C[C@H]21 [Compound 4] | 1.9 | < 5.1 | < 0.05 | < 0.05 | 3.7 |  |  |  | 2.3 | 1.5 | 1.1 | 33.8 | 0.07 | 1.3
CN1CC(CCSc2ccc3c(c2C(=O)O)OB(O)[C@@H]2C[C@H]32)C1 [Compound 24-a] | 19.7 | < 5.1 | 7.7 | 6 | 39.4 |  |  |  | 14.8 | 3.4 | 3.1 | 63.8 | 1 | 1.4
